ChEMBL document CHEMBL1157539, “Thousands of chemical starting points for antimalarial lead identification” (Nature, 2010)

System: Plasmodium falciparum
Assay: GSK_TCMDC: Inhibition of Plasmodium falciparum 3D7 in whole erythrocytes, using parasite LDH activity as an index of growth.
Type: functional, organism-based

| SMILES | XC50 (Plasmodium falciparum, 3D7) [nM] | XC50 [nM] |
| --- | --- | --- |
| Cc1noc(C)c1-c1cccc(CNCc2ccc(-c3cccc(-c4nc5cc(F)ccc5[nH]4)c3)cc2)c1 | 545 | – |
| CCOc1ccc(OCC(=O)Nc2nc(-c3ccc(OC)cc3)c(C)s2)cc1 | 220 | – |
| O=C(NCC1CCC(C(=O)O)CC1)c1ccc(/C=C/C(=O)N2CCc3ccccc3C2c2ccc3c(c2)OCO3)cc1 (stereo unspecified) | 892 | – |
| COc1ccc(CCn2c(=N)c(C(=O)NC3CCCC3)cc3c(=O)n4ccccc4nc32)cc1 | 678 | – |
| Cc1cccc(C(=O)N2CCN(Cc3cccc(NC(=O)c4cccs4)c3)CC2)c1 | 221 | – |
| CCC(C)NC(=O)CN1CN(c2ccccc2)C2(CCN(C(=O)c3ccc4ccccc4c3)CC2)C1=O (stereo unspecified) | 627 | – |
| COc1ccc(NC(=O)Nc2cccc(-c3cccc(-c4nc5cccc(C)c5[nH]4)c3)c2)cc1 | 400 | – |
| CCCc1cc(NCc2ccncc2)nc(Nc2ccc(F)cc2)n1 | 1120 | – |
| O=C(NCC1CCN(CC2CCCCC2)C1)c1cc(-c2cccc(Cl)c2)cs1 (stereo unspecified) | 1090 | – |
| Cc1noc(-c2ccc(N3CCC(C(=O)N4CCN(C(C)C)CC4)CC3)cc2)n1 | 1070 | – |
| Cc1cc(=O)c(-c2ccc(Oc3cccc(OC(F)(F)F)c3)cc2)c(C)[nH]1 | 202 | – |
| Cc1[nH]c(C)c(-c2ccc(-c3ccc4c(c3)OCO4)nc2)c(=O)c1Br | 187 | – |
| COc1ccc(-c2ccc(CNCc3ccsc3)cc2)cc1S(=O)(=O)NCCN1CCCC1 | 794 | – |
| COc1cccc(CCc2c(CCNCCCCCCNCCc3ccccc3)ccc(OC)c2OC)c1 | 721 | – |
| CC(=O)N(C)C1CCN(Cc2ccc(-c3cccc(-c4nc5cc(F)ccc5[nH]4)c3)cc2)C1 (stereo unspecified) | 596 | – |
| COc1ccc(CN(C)CCCc2ccc(NC(=O)c3cc4ccccc4[nH]3)cc2)cc1OC | 725 | – |
| CC(C)C(=O)NC(c1ccc(N(C)C)cc1)c1cc(Cl)c2cccnc2c1O (stereo unspecified) | 859 | – |
| CC(CC(=O)NCC1(c2ccc(F)cc2Cl)CCOCC1)C(=O)c1ccc(Cl)cc1 (stereo unspecified) | 856 | – |
| CC(C)CN1CCN(c2nc(C#N)c3c(c2C(=S)NC2CCCCC2)CC(C)(C)OC3)CC1 | 296 | – |
| c1ccc2c(c1)CN(CC1CC1)CC1(CCN(Cc3c[nH]c4cnccc34)CC1)O2 | 900 | – |
| Cc1cccc(CN2CCCN(Cc3ccc(C(=O)Nc4ccc(Cl)cc4)cc3)CC2)c1 | 596 | – |
| Cn1nccc1C(=O)NCCNCc1cccc(-c2ccc(-c3nc4cc(C(F)(F)F)ccc4[nH]3)s2)c1 | 151 | – |
| CS(=O)(=O)N(c1cccc(F)c1)c1cc(C(=O)N[C@@H](Cc2ccccc2)[C@H](O)CNCc2cccc(C(F)(F)F)c2)cc(N2CCCC2=O)c1 | 910 | – |
| CNS(=O)(=O)Cc1ccc(Nc2nccc(Nc3cccc4c3cnn4C(=O)Nc3ccccc3)n2)cc1 | 959 | – |

| SMILES | XC50 (Plasmodium falciparum, 3D7) [nM] | XC50 [nM] |
| --- | --- | --- |
| Cc1noc(C)c1-c1cccc(C(=O)NC2CCN(CCNC(=O)C(c3ccccc3)c3ccccc3)CC2)c1 | 1220 | – |
| COc1ccc2nccc(NCC3(O)CCN(CC(O)c4ccc5c(c4)NC(=O)CS5)CC3)c2n1 (stereo unspecified) | 834 | – |
| Nc1c(-c2ccc(C(=O)NCCNCc3ccccc3)cc2)cnn1-c1ccc(C(F)(F)F)cc1 | 1160 | – |
| O=C(N[C@@H](Cc1ccccc1)C(=O)NCCN1CCCCC1)c1ccc(O)c(-c2ccc(Cl)c(Cl)c2)c1 | 1520 | – |
| CCCC(C(=O)OCCNC)(c1ccccc1)c1ccccc1 | 889 | – |
| O=C(Nc1nc2cc(S(=O)(=O)NCc3ccc(Cl)c(Cl)c3)ccc2n1CCCN1CCCC1)c1ccc(Cl)cc1 | 939 | – |
| CC(C)(C)OC(=O)NCc1ccc(Nc2nnc(-c3cccc(OCC(=O)NCc4cc(C(F)(F)F)cc(C(F)(F)F)c4)c3)o2)cc1 | 832 | – |
| CN(c1cc(NC(=O)c2ccc(F)cc2)ccn1)C1CCN(Cc2ccc(C#N)cc2)CC1 | 1510 | – |
| O=S1(=O)C=C(c2ccccc2)CC1 | 205 | – |
| COc1ccc2nccc([C@@H](O)CN3CCC(NC(=O)c4ccc(-c5ccccc5)s4)CC3)c2c1 | 310 | – |
| Fc1ccc(CNc2ncc(-c3ccsc3)c(-c3nccs3)n2)cc1 | 72.1 | – |
| COc1ccc2nccc([C@@H](O)CN3CCC(NCC(O)Cc4ccccc4)CC3)c2c1 (stereo partly specified) | 671 | – |
| CC[C@H]1CN2CC[C@H]1C[C@H]2[C@H](O)c1cc(/C=C/c2ccccc2)nc2ccc(OC)cc12 | 42.7 | – |
| NC1=NC2(CCCC2)N(c2ccc(Cl)cc2)C(N)=N1 | 414 | – |
| CCNc1cc(C(=O)N[C@@H](Cc2cccc(Cl)c2)[C@H](O)CNC(C)CCCC(C)C)cc(N2CCCCS2(=O)=O)c1 (stereo partly specified) | 285 | – |
| Oc1cccc(Nc2ccnc3cc(-c4ccncc4)ccc23)c1 | 1050 | – |
| Oc1ccc(CCNc2nc(NCc3cccc(OCc4cccc(F)c4)c3)nc(N3CCNCC3)n2)cc1 | 1340 | – |
| CS(=O)(=O)c1ccc(-c2cncc(Cl)n2)cc1 | 770 | – |
| O=C(Nc1ccc(Cl)cc1)N[C@H]1CCN(Cc2ccc(OCCCN3CCCCC3)cc2)C1 | 671 | – |
| Cc1cc(Cl)ccc1OC(C)C(=O)N1CCc2ccccc21 (stereo unspecified) | 668 | – |
| Fc1ccc2[nH]c(-c3ccc(-c4ccc(CNCc5ccccc5)cc4)cc3)nc2c1 | 284 | – |
| C=Cc1cc(OC)c2c(c1)c(=O)oc1c2cc(OC)c2c(O)ccc([C@H]3O[C@H]([C@H](C)O)[C@H](O)[C@H]3O)c21 | 794 | – |
| COc1cc(C(=O)NCc2nn(CCN3CCC(N4CCCC4)CC3)cc2-c2ccc(Cl)c(Cl)c2)cc(OC)c1OC | 774 | – |
| N=C(N)Nc1ccc(OCCCCCOc2ccc(NC(=N)N)cc2Br)c(Br)c1 | 262 | – |

| SMILES | XC50 (Plasmodium falciparum, 3D7) [nM] | XC50 [nM] |
| --- | --- | --- |
| Cc1ccc(CC(C)NCC(O)c2cccc(C(F)(F)F)c2)c(C)c1 (stereo unspecified) | 703 | – |
| COc1cc2nc(N3CCC(CNC(=O)c4ccc(-c5ccc(C(=O)N(C)C)cc5O)cc4)CC3)nc(N)c2cc1OC | 278 | – |
| CCC(C)NS(=O)(=O)c1ccc2nc(Nc3ccc(C)c(Cl)c3)n(C3CCCCC3)c2c1 (stereo unspecified) | 511 | – |
| CC(=NNC(S)=NCc1ccco1)c1ccccn1 | 254 | – |
| CC(C)CCNCc1ccc(OCc2ccccc2COc2ccc(CNCCC(C)C)cc2I)c(I)c1 | 425 | – |
| Cc1cc(NCC(c2ccccc2)c2ccccc2)nc(NCC2CCCCC2)n1 | 507 | – |
| COc1ccc(NS(=O)(=O)c2cc(NC(=O)Cn3ccccc3=O)ccc2N2CCCCC2)cc1 | 695 | – |
| OC1(c2ccc(Cl)c(C(F)(F)F)c2)CCN(CCOC2c3ccccc3CSc3ccc(Cl)cc32)CC1 (stereo unspecified) | 799 | – |
| Cc1[nH]c(-c2ccc(F)cc2)cc1C(=O)NC1CCN(Cc2ccccc2)CC1 | 1130 | – |
| Cc1nn(CCOC(=O)NC(NCC2COc3ccccc3O2)C(Cl)(Cl)Cl)cc1[N+](=O)[O-] (stereo unspecified) | 917 | – |
| O=C(NCCCCN1CCC(c2ccc3c(c2OCCN2CCCC2)CCCC3)CC1)c1ccc(-c2ccc(C(F)(F)F)cc2)cc1 | 447 | – |
| Nc1nc(Cc2ccc(Cl)cc2)nc(Cc2ccc(Cl)cc2)n1 | 929 | – |
| Cc1noc(C)c1-c1ccc2c(Nc3ccccc3C(C)(C)C)c(C(=O)NCc3ccc4c(c3)OCO4)cnc2c1 | 912 | – |
| COc1ccc2nccc([C@@H](O)CN3CCC(NCc4ccc5c(n4)NCCC5)CC3)c2c1 | 738 | – |
| N#Cc1cccc(Nc2nccc(Nc3ccc(Oc4ccccc4)cc3)n2)c1 | 830 | – |
| CC(O)C1CCCCN1C(=O)c1cccc(-c2cccc(-c3nc4cc(F)ccc4[nH]3)c2)c1 (stereo unspecified) | 536 | – |
| O=c1cc(NCCCCNCc2cccc(Br)c2)[nH]c2ccccc12 | 729 | – |
| Cc1ccc(CC(C)NCC(O)c2cccc(C(F)(F)F)c2)cc1F (stereo unspecified) | 916 | – |
| CCN(CC)CCN(Cc1ccc(-c2ccc(C(F)(F)F)cc2)cc1)C(=O)Cn1c(CCc2cc(F)c(F)cc2F)nc(=O)c2ccccc21 | 718 | – |
| Cc1ccc(C)c(C=CC(=O)NC2CCC(CN3CCC(c4c[nH]c5ccccc45)CC3)CC2)c1 (stereo unspecified) | 765 | 698 |
| Cc1nn(-c2ccccc2)c2nc(-c3ccccc3)cc(C(=O)N3CCOCC3)c12 | 872 | – |
| Cc1noc(C)c1-c1cccc(CNCc2cccc(-c3ccc(-c4nc5cc(C(F)(F)F)ccc5[nH]4)s3)c2)c1 | 166 | – |
| Oc1c(Cl)cc(-c2ccccc2)cc1CNC1CCCCC1 | 749 | – |
| CCOc1ccc2c(N/N=C/c3cccc([N+](=O)[O-])c3)cc(C)nc2c1 | 224 | – |

| SMILES | XC50 (Plasmodium falciparum, 3D7) [nM] | XC50 [nM] |
| --- | --- | --- |
| CC(C)c1ccc(CN2CCC(NC(=O)c3ccc(-c4ccccc4F)s3)CC2)cc1 | 1550 | – |
| CCCCC(CC)NC(=O)[C@H]1CNCCN1C(=O)CCCc1ccccc1 (stereo partly specified) | 885 | – |
| CN(C)CCOc1cc(NC(=O)/C=C/c2cccc3ccccc23)ccc1I | 1260 | – |
| COc1ccc(Cl)cc1N1CCN(CCCNC(=O)c2ccc(-c3nc4cc(Cl)c(F)cc4[nH]3)cc2)CC1 | 1060 | – |
| O=C1OC2(CN1CC1CCN(Cc3ccc(-n4ccnc4)cc3)C1)c1ccccc1-c1ccccc12 (stereo unspecified) | 983 | – |
| O=C(Cn1c(SCc2cccc(F)c2F)cc(=O)c2ccccc21)N(CCN1CCCCC1)Cc1ccc(-c2ccc(C(F)(F)F)cc2)cc1 | 664 | – |
| CN1CCC(NCc2cccc(-c3ccc(S(=O)(=O)NCc4ccccc4)cc3)c2)CC1 | 687 | – |
| COc1cc2c(cc1C(F)(F)F)N(C(=O)Nc1cc(Br)cc(-c3cccnc3)c1)CC2 | 864 | – |
| Cc1cc(-c2cc(Cl)ccc2Cl)no1 | 168 | – |
| COc1cc(-n2c(CN3CCCC3)nc3cc(-c4ccc(Cl)cc4)sc3c2=O)ccc1OCCN1CCCC1 | 1040 | – |
| Cc1[nH]c2ccccc2c1C1=CCN(CCCCC23CCCc4cccc(c42)NC3=O)CC1 (stereo unspecified) | 231 | – |
| CCCOc1cc(OCCC)cc(-c2ccc(C(=O)Nc3ccc4ccc(C)nc4c3)c(=O)[nH]2)c1 | 750 | – |
| c1cncc(CCNCc2cccc(-c3csc(-c4nc5ccccc5[nH]4)c3)c2)c1 | 704 | – |
| CCCCCCCCNCC(O)c1cc(-c2ccc(Cl)cc2)nc2cc(C)ccc12 (stereo unspecified) | 82.3 | – |
| C[C@H](Cc1ccc(C[C@@H](C)NCC(O)c2cc(Cl)c(N)c(Cl)c2)cc1)NCC(O)c1cc(Cl)c(N)c(Cl)c1 (stereo partly specified) | 893 | – |
| Cc1sc2nc(CSc3ccccc3)nc(N3CCN(CC(=O)NC4CC4)CC3)c2c1C | 462 | – |
| COc1cc(CNCCCCCCNCc2cc(OC)cc3ccccc23)c2ccccc2c1 | 590 | – |
| CN(Cc1ccc(NC(=O)CCC2CCN(C(=O)/C=C/c3ccc(Cl)c(Cl)c3)CC2)cc1)C1CCOCC1 | 1730 | – |
| COc1ccc(Cl)cc1NC(=O)CN(C)C(=O)c1cnn(-c2ccccc2)n1 | 228 | – |
| Clc1ccc(CNCCCCCCCNCc2ccc(Cl)c(Cl)c2)cc1Cl | 372 | – |
| COc1ccccc1N(C)CCNc1cc(C)nc(Nc2ccccc2)n1 | 1070 | – |
| O=C(Nc1ccc(-c2nc3ccccc3[nH]2)cc1)c1ccc(-c2cccc([N+](=O)[O-])c2)o1 | 267 | – |
| Cc1cc(N[C@@H](CC(C)C)C(=O)NCCOc2ccccc2)nc(NCCOc2ccccc2)n1 | 1490 | – |
